Experiments:
[1] = system: present invention protein (A22); test: Metabolism of compounds by the present invention protein (A22), reaction solution, HPLC; type: in vitro ADME, Streptomyces pallidus IFO 13434T; conditions: 12.5 ppm of compound, components A, B, C, 20 μl supernatant fraction of Example 61(2), 30° C. for 10 minutes
Ivyleaf morningglory = test: Herbicidal activity test, soil surface treatment; type: in vivo, Ipomoea hederacea; parameters: key: 0: situations in which the condition of sprouting or vegetation at the time of examination of the plant utilized for the test was compared with and showed totally or substantially no difference with that of the untreated application; 10: situations in which the plant completely withered or the sprouting or vegetation was completely suppressed; conditions: 500 g/ha, sprayed onto the surface of the soil after seeding, investigated after 19 days in a greenhouse
Method: Soil was packed into a round plastic pot having a diameter of 10 cm and depth of 10 cm. Barnyardgrass, Blackgrass, Ivyleaf morningglory were seeded. Five (5) parts of the test compound, 6 parts of sorpol3005X (Toho Chemical Company) and 89 parts of xylene were well mixed to produce an emulsion. A certain amount thereof was diluted with water containing 0.1% (v/v) of a sticking agent at a proportion of 1000 L for 1 hectare and was spread uniformly with a spray-gun onto the surface of the soil. After cultivating the plants for 19 days in a greenhouse, the herbicidal activity was investigated.
In the above Tables 3 and 4, the strength of the herbicidal activity is shown stepwise as 0, 1, 2, 3, 4, 5, 6, 7, 8, 9, and 10.

[2] = system: leaf pieces derived from the tobacco to which the present invention DNA (A2) was introduced; test: Herbicidal damage of tobacco leaf pieces on MS agar medium containing compound (II); type: cell-based; conditions: MS agar medium containing 0.1 mg/L of compound (II), in the light at room temperature, 7th day of culturing
From the text: Leaf pieces of sterily cultured tobacco were infected with each of the agrobacterium strain bearing pBI-NdG6-rSt-923 and the agrobacterium strain bearing pBI-NdG6-rSt12-923. Tobaccos in which the present invention DNA (A2) has been introduced were obtained under the procedures similar to the methods described in Example 19.
Three (3) leaves were taken from the obtained transgenic tobacco. Each leaf was divided into 4 pieces in which each piece was 5 to 7 mm wide. Each of the leaf pieces were planted onto MS agar medium containing 0.1 mg/L of compound (II) and cultured in the light at room temperature. On the 7th day of culturing, the herbicidal damage of each of the leaf pieces was observed.

[3] = system: present invention protein (A12); test: Detection of the ability to convert compound (II) to compound (III), E. coli pKSN1618F extract; type: in vitro ADME, Streptomyces tsusimaensis IFO 13782; conditions: 3 ppm of compound (II) labeled with 14C, components A, B, 10 minutes at 30° C.
Method: (§1) Reaction solutions of 30 μl were prepared and maintained for 10 minutes at 30° C. The reaction solutions consisted of a 0.1M potassium phosphate buffer (pH7.0) containing 3 ppm of compound (II) labeled with ^14C, 2 mM of β-NADPH (hereinafter, referred to as “component A”) (Oriental Yeast Company), 2 mg/ml of a ferredoxin derived from spinach (hereinafter referred to as “component B”) (Sigma Company), 0.1 U/ml of ferredoxin reductase (hereinafter, referred to as “component C”) (Sigma Company) and 23 μl of the supernatant fraction recovered in Example 32(2). Similarly to Example 4(3), the reaction solutions after the maintenance were extracted with ethyl acetate and the extracted layers were TLC analyzed. […] A spot corresponding to compound (III) was detected from the reaction solution containing E. coli pKSN849AF extract. In contrast, such a spot was not detected from the reaction solution containing E. coli pKSN2 extract.
Reaction solutions of 30 μl were prepared and maintained for 10 minutes at 30° C. […] The reaction solutions after the maintenance were extracted with ethyl acetate and the extracted layers were TLC analyzed. […] A spot corresponding to compound (III) was detected from the reaction solution containing E. coli pKSN1618F extract. In contrast, such a spot was not detected from the reaction solution containing E. coli pKSN2 extract.

[4] = system: present invention protein (A22); test: Detection of the ability to convert compound (II) to compound (III), E. coli pKSN1558BF extract; type: in vitro ADME, Streptomyces pallidus IFO 13434T; conditions: 3 ppm of compound (II) labeled with 14C, components A, B, 10 minutes at 30° C.
Method: as §1
Similarly to Example 32(3), reaction solutions of 30 μl were prepared and maintained for 10 minutes at 30° C. […] The reaction solutions after the maintenance were extracted with ethyl acetate and the extracted layers were TLC analyzed. […] A spot corresponding to compound (III) was detected from the reaction solution containing E. coli pKSN1558BF extract. In contrast, such a spot was not detected from the reaction solution containing E. coli pKSN2 extract.

[5] = system: present invention protein (A13); test: Detection of the ability to convert compound (II) to compound (III), E. coli pKSN474F extract; type: in vitro ADME, Streptomyces thermocoerulesces IFO 14273t; conditions: 3 ppm of compound (II) labeled with 14C, components A, B, 10 minutes at 30° C.
Method: as §1
Reaction solutions of 30 μl were prepared and maintained for 10 minutes at 30° C. […] The reaction solutions after the maintenance were extracted with ethyl acetate and the extracted layers were TLC analyzed. […] A spot corresponding to compound (III) was detected from the reaction solution containing E. coli pKSN474F extract. In contrast, such a spot was not detected from the reaction solution containing E. coli pKSN2 extract.

With `Cn1c(C(F)(F)F)cc(=O)n(-c2cc(Oc3cccnc3OCC(=O)O)c(Cl)cc2F)c1=O` [compound (XII)] the “concentration of the compound detected from metabolism solution (A22) compared to control solution (A22)” value [1] was “lower”.
`C[C@@H](Oc1cc(-n2c(=O)cc(C(F)(F)F)n(C)c2=O)c(F)cc1Cl)C(=O)O` [compound (II)] was tested, and the “Herbicidal Activity Ivyleaf Morningglory” value (Ivyleaf morningglory) was 10, the “herbicidal damage of the leaf pieces” value [2] was “grew continuously” and the “spot corresponding to compound (III) labeled with 14C (TLC)” value (shortened to “spot corresponding to compound”) [3] was “detected”. The “spot corresponding to compound” value [4] was “detected” and the “spot corresponding to compound” value [5] was “detected”.

From patent US8293979B2, “Weed controller metabolism proteins, genes, thereof and use of the same” (Sumitomo Chemical Company, Limited, priority 2001, dated 2012)
